Measured values from patent US5858738A, “Ermophilane sesquiterpenoids as HIV intergrase inhibitors” (Merck & Co., Inc., priority 1997, dated 1999).

Legend:
HIV integrase = target: T1, HIV integrase (Human immunodeficiency virus type 1 group M subtype B, UniProt P04585); experiment: Strand Transfer Assay for HIV Integrase (ligation of processed donor (HIV) DNA to nicked host DNA); type: biochemical; conditions: inhibition of strand transfer; inhibitor 0.1 to 100 μM
T1 construct: strand transfer by HIV integrase
Protocol: Strand Transfer Assay for HIV Integrase
A microtiter assay for ligation of processed donor (HIV) DNA to unspecific, nicked host DNA was conducted according to Hazuda, D. J. et al., Nucl. Acids, Res. 22, 1121 (1994), herein incorporated by reference for these purposes. To assay inhibition of such strand transfer by HIV integrase, the reaction was conducted with inhibition having various concentrations in the range of 0.1 to 100 μM.

[1] = target: T2, HIV Integrase/donor (HIV) DNA complexes (Human immunodeficiency virus type 1 group M subtype B, UniProt P04585); experiment: Assay for Assembly of HIV Integrase/donor (HIV) DNA Complexes; conditions: inhibition of assembly or binding to immobilized donor (HIV) DNA; inhibitor 0.1 to 100 μM
T2 construct: strand transfer by HIV integrase
Protocol: Assay for Assembly of HIV Integrase/donor (HIV) DNA Complexes
An assay measuring the binding of HIV Integrase to immobilized donor (HIV) DNA was conducted according to Wolfe, A. L. et al., J. Virol. 70, 1424 (1996), herein incorporated by reference for these purposes. To assay inhibition of such assembly or binding, the reaction was conducted with inhibitor having various concentrations in the range of 0.1 to 100 μM. Results follow.

HIV-1 integrase = target: T3, HIV-1 integrase (Human immunodeficiency virus type 1 group M subtype B, UniProt P04585); experiment: HIV Integrase Substrate Cleavage and Integration Assay (trimming of the 3' end of HIV long terminal repeat terminus); type: biochemical; conditions: inhibition of HIV integrase substrate cleavage; inhibitor 0.1 to 100 μM
T3 construct: HIV-1 integrase
Protocol: HIV Integrase Substrate Cleavage and Integration Assay
An assay for trimming of the 3' end of HIV long terminal repeat terminus by HIV-1 integrase was conducted according to LaFemina, R. L. et al., J. Virol 10, 5624 (1991), herein incorporated by reference for these purposes. To assay inhibition of HIV integrase substrate cleavage, the reaction was conducted with inhibitor having various concentrations in the range of 0.1 to 100 μM.

**Q.** Which results are given for `C=C(C=O)C1CC2(C)C(=CC1=O)C(OC(=O)C(C)=CC(C)CCCC)CCC2C(=O)O` (stereo not drawn) [Compound A]?
**A.** IC50 (HIV integrase): 5 to 10 µM; IC50 [1]: 10 µM; IC50 (HIV-1 integrase): 5 to 10 µM
